Measurements reported in patent publication US4017607A.
≈ marks a conversion by molar mass, not a printed value. Where two headings read alike, the source gives them in different places.

Legend:
[1] = test system: Staphylococcus aureus 209P; experiment: Minimum inhibitory concentration, serial dilution method, Brain Heart Infusion broth; format: cell-based; settings: Staphylococcus aureus, 209P, 24 h, read-out: Minimum Inhibitory Concentration
[2] = test system: Staphylococcus aureus Terajima; experiment: Minimum inhibitory concentration, serial dilution method; format: cell-based; settings: Staphylococcus aureus, 24 h, read-out: Minimum Inhibitory Concentration
[3] = test system: Staphylococcus aureus Smith; experiment: as above; format: cell-based; settings: Staphylococcus aureus, 24 h, read-out: Minimum Inhibitory Concentration
[4] = test system: Staphylococcus albus 1200A; experiment: as above; format: cell-based; settings: Staphylococcus, 1200A, 24 h, read-out: Minimum Inhibitory Concentration
[5] = test system: Streptococcus faecalis ATCC 8043; experiment: as above; format: cell-based; settings: Enterococcus faecalis, ATCC8043, 24 h, read-out: Minimum Inhibitory Concentration
[6] = test system: Streptococcus hemolyticus Cook; experiment: as above; format: cell-based; settings: Streptococcus pyogenes, 24 h, read-out: Minimum Inhibitory Concentration
[7] = test system: Streptococcus hemolyticus D-90; experiment: as above; format: cell-based; settings: Streptococcus pyogenes, D90, 24 h, read-out: Minimum Inhibitory Concentration
[8] = test system: Streptococcus pyogenes D-58; experiment: as above; format: cell-based; settings: Streptococcus pyogenes, D58, 24 h, read-out: Minimum Inhibitory Concentration
[9] = test system: Diplococcus pneumoniae Type I; experiment: as above; format: cell-based; settings: Streptococcus pneumoniae, 24 h, read-out: Minimum Inhibitory Concentration
[10] = test system: Diplococcus pneumoniae Type III; experiment: as above; format: cell-based; settings: Streptococcus pneumoniae, 24 h, read-out: Minimum Inhibitory Concentration
[11] = test system: Bacillus subtilis PCI 219; experiment: as above; format: cell-based; settings: Bacillus subtilis, PCI219, 24 h, read-out: Minimum Inhibitory Concentration
[12] = test system: Bacillus subtilis ATCC 6633; experiment: as above; format: cell-based; settings: Bacillus subtilis, ATCC6633, 24 h, read-out: Minimum Inhibitory Concentration
[13] = test system: Bacillus anthracis No. 119; experiment: microbe, parasite or virus in culture; format: cell-based; settings: NO.119, 24 h, read-out: Minimum Inhibitory Concentration
[14] = test system: Corynebacterium diphtheriae Type gravis; experiment: Minimum inhibitory concentration, serial dilution method; format: cell-based; settings: Corynebacterium diphtheriae, 24 h, read-out: Minimum Inhibitory Concentration
[15] = test system: Corynebacterium diphtheriae Type intermedius; experiment: as above; format: cell-based; settings: Corynebacterium diphtheriae, 24 h, read-out: Minimum Inhibitory Concentration
Sarcina lutea = experiment: as above; format: cell-based; settings: Micrococcus luteus, 24 h, read-out: Minimum Inhibitory Concentration
[16] = Acute toxicity by oral administration to mice; settings: mouse, in vivo, free base
[17] = test system: Staphylococcus aureus 209P; settings: 7th day, 10 mice per group

SMILES: CCC(=O)OC1CC(=O)OC(C)CC=CC=CC(O)C(C)CC(CC=O)C(OC2OC(C)C(OC3CC(C)(O)C(OC(=O)CC)C(C)O3)C(N(C)C)C2O)C1OC (stereo not shown) [SF-837 substance, reference compound]
- MIC [1]: 0.78 µg/mL (≈ 0.958 µM)
- MIC [2]: 1.56 µg/mL (≈ 1.92 µM)
- MIC [3]: 0.19 µg/mL (≈ 0.233 µM)
- MIC [4]: 0.78 µg/mL (≈ 0.958 µM)
- MIC [5]: 1.56 µg/mL (≈ 1.92 µM)
- MIC [6]: 0.09 µg/mL (≈ 0.111 µM)
- MIC [7]: 1.56 µg/mL (≈ 1.92 µM)
- MIC [8]: 0.09 µg/mL (≈ 0.111 µM)
- MIC [9]: 0.04 µg/mL (≈ 0.0491 µM)
- MIC [10]: 0.04 µg/mL (≈ 0.0491 µM)
- MIC [11]: 0.78 µg/mL (≈ 0.958 µM)
- MIC [12]: 1.56 µg/mL (≈ 1.92 µM)
- MIC [13]: 0.78 µg/mL (≈ 0.958 µM)
- MIC [14]: 0.19 µg/mL (≈ 0.233 µM)
- MIC [15]: 0.19 µg/mL (≈ 0.233 µM)
- MIC (Sarcina lutea): 0.09 µg/mL (≈ 0.111 µM)
- LD50 [16]: 3200 mg/kg
- Rate of surviving mice in each group of mice ([17]; 100 mg/kg oral): 0/10
- Rate of surviving mice in each group of mice ([17]; 200 mg/kg oral): 6/10
